One block for each compound: values may come before it.
Key:
[1] = target: T1, Amine oxidase [flavin-containing] A (Homo sapiens, UniProt P21397); assay: Inhibition of recombinant human MAO-A using kynuramine as substrate incubated for 10 mins followed by substrate addition and measured for 20 mins by Fluorescence microplate reader assay
T1 sequence (P21397 whole entry): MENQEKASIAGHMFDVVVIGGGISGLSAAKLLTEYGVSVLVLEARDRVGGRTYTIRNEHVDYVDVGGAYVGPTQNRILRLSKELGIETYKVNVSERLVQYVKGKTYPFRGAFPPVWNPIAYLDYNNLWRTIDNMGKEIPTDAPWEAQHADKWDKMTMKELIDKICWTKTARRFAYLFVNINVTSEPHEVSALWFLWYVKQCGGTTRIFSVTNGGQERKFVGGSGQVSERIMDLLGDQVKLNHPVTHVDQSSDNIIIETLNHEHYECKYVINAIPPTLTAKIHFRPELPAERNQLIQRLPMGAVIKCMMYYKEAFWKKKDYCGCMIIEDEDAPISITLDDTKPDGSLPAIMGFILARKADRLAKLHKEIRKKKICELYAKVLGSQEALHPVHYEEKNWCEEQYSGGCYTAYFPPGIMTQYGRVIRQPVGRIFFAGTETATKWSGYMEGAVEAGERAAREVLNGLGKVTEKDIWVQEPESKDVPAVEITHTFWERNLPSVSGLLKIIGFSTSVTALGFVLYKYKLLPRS

[2] = target: Acetylcholinesterase (Electrophorus electricus, UniProt O42275); assay: Inhibition of electric eel AChE using acetylthiocholine iodide as substrate incubated for 6 mins followed by substrate addition by DTNB reagent based Ellman's method
Acetylcholinesterase (Electrophorus electricus, UniProt O42275), sequence (O42275 whole entry): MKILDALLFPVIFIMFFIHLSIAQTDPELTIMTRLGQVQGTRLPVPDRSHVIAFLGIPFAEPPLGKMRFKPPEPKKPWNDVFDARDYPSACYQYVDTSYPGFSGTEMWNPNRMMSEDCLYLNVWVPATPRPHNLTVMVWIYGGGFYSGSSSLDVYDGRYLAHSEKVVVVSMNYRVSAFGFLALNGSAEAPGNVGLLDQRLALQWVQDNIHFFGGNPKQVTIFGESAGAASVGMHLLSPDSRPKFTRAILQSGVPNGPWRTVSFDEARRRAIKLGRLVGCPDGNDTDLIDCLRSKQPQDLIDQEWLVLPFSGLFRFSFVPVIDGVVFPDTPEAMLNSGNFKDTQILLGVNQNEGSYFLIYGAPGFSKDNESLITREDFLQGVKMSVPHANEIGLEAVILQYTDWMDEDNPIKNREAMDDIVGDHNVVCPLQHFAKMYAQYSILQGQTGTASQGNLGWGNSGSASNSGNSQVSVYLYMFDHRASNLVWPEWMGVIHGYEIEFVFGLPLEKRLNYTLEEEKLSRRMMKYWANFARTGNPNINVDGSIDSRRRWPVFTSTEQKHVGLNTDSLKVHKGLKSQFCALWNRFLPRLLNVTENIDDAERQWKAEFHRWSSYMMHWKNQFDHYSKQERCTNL

[3] = target: T2, Amine oxidase [flavin-containing] B (Homo sapiens, UniProt P27338); assay: Inhibition of recombinant human MAO-B using p-tyramine as substrate incubated for 15 mins followed by substrate addition and measured upto 20 mins by Amplex Red assay
T2 sequence (P27338 whole entry): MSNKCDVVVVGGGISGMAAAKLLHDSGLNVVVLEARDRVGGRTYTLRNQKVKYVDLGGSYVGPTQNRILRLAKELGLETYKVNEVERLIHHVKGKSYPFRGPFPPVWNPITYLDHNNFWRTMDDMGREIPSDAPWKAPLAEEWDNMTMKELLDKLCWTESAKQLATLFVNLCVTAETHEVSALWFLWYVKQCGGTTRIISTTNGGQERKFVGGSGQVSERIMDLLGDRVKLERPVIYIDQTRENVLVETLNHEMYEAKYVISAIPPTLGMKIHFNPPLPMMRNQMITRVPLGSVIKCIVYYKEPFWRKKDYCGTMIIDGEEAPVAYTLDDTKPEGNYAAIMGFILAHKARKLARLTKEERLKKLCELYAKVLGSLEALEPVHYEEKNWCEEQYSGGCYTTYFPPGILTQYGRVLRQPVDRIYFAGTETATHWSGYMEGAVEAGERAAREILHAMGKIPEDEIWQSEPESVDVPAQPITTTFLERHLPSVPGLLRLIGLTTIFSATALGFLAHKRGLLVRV

[4] = target: T2, Amine oxidase [flavin-containing] B; assay: Inhibition of human MAO-B
[5] = target: T3, Acetylcholinesterase (Mus musculus, UniProt P21836); assay: Inhibition of mouse AChE using acetylthiocholine iodide as substrate incubated for 20 mins by DTNB reagent based Ellman's method
T3 sequence (P21836 whole entry): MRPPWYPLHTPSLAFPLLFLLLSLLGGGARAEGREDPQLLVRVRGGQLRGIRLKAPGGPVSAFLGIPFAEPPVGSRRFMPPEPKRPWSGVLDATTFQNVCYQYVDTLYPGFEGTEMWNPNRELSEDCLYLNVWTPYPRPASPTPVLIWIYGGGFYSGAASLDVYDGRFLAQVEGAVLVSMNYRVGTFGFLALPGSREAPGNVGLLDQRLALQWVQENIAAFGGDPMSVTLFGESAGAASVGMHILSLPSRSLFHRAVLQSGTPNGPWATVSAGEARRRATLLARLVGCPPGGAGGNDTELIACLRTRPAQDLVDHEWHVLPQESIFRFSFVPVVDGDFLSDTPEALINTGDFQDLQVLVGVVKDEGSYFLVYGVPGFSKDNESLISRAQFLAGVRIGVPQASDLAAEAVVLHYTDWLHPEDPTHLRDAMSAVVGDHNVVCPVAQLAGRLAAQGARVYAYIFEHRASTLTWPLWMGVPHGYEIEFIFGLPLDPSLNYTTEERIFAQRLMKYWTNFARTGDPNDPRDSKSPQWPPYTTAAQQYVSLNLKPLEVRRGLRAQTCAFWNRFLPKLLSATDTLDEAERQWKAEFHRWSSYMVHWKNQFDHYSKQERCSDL

[6] = Oral bioavailability in ICR mouse at 10 mg/kg and measured after 24 hrs by HPLC analysis; type: ADME, organism-based; conditions: in vivo
[7] = target: T2, Amine oxidase [flavin-containing] B; assay: Inhibition of human MAO-B using benzylamine as substrate preincubated for 15 mins followed by substrate addition and measured after 15 mins by fluorescence assay
[8] = target: T2, Amine oxidase [flavin-containing] B; assay: Inhibition of recombinant human MAO-B using tyramine hydrochloride as substrate preincubated for 30 mins followed by substrate addition and measured after 30 mins by fluorescence assay
[9] = target: T2, Amine oxidase [flavin-containing] B; assay: Competitive inhibition of recombinant human MAO-B using kynuramine as substrate incubated for 20 mins by Lineweaver-Burk plot analysis
[10] = target: T1, Amine oxidase [flavin-containing] A; assay: Inhibition of recombinant human MAO-A using kynuramine as substrate incubated for 20 mins by fluorescence spectrophotometric assay
[11] = target: T2, Amine oxidase [flavin-containing] B; assay: Inhibition of recombinant human MAO-B using kynuramine as substrate incubated for 20 mins by fluorescence spectrophotometric assay
[12] = target: T4, Amine oxidase [flavin-containing] B (Rattus norvegicus, UniProt P19643); assay: Inhibition of rat brain mitochondria MAO-B using p-tyramine as substrate incubated for 15 mins followed by substrate addition and measured for 15 by microplate fluorescence reader analysis
T4 sequence (P19643 whole entry): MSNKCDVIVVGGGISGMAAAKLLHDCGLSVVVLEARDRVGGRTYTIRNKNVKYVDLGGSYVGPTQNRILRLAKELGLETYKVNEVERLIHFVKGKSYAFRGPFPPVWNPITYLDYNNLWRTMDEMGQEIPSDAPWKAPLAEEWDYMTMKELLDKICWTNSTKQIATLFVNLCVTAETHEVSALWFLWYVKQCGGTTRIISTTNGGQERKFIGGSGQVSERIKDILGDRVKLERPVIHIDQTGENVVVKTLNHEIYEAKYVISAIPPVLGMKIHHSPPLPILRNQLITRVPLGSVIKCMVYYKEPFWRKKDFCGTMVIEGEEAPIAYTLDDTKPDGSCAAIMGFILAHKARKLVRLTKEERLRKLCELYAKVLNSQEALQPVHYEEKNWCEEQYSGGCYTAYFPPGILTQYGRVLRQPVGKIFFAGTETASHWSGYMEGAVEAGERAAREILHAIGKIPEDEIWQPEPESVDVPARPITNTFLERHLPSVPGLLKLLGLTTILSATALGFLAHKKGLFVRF

[13] = target: T2, Amine oxidase [flavin-containing] B; assay: Inhibition of human MAO-B using tyramine as substrate by amplex red assay
[14] = target: T4, Amine oxidase [flavin-containing] B; assay: Inhibition of rat brain mitochondria MAO-B using benzylamine as substrate incubated for 30 mins by microplate reader assay
[15] = target: T2, Amine oxidase [flavin-containing] B; assay: Inhibition of MAO-B (unknown origin) using tyramine hydrochloride as substrate incubated for 30 mins followed by substrate addition and measured after 5 mins by spectrophotometric assay
[16] = target: T2, Amine oxidase [flavin-containing] B; assay: Inhibition of recombinant human MAO-B using p-tyramine as substrate incubated for 10 mins followed by substrate addition and measured 20 mins by fluorescence assay
[17] = target: T1, Amine oxidase [flavin-containing] A; assay: Inhibition of recombinant human MAO-A using p-tyramine as substrate incubated for 10 mins followed by substrate addition and measured 20 mins by fluorescence assay
[18] = species on record: Homo sapiens; assay: Selectivity index, ratio of IC50 for inhibition of recombinant human MAO-B to IC50 for inhibition of recombinant human MAO-A
[19] = target: T2, Amine oxidase [flavin-containing] B; assay: Inhibition of recombinant human MAO-B using kynuramine as substrate incubated for 20 min by fluorescent spectrophotometric assay
[20] = target: T2, Amine oxidase [flavin-containing] B; assay: Inhibition of MAO-B (unknown origin) using as tyramine as substrate by Ampliflu red reagent based fluorometric method

IC50 [1]: 6120 nM
Compound: CCOc1ccc([N+](=O)[O-])c(N/N=C/c2cccn2C)n1

IC50 [8]: 342 nM
Compound: CC1CCCCN1c1ccc(/C=N/Nc2ccccc2)cc1 (stereo not given)

IC50 [14]: 34 nM
Compound: O=C1Nc2ccc(Cl)cc2/C1=N\NC(=O)c1ccc2c(c1)OCO2

IC50 [15]: 28 nM
Compound: CN1CCN(c2ccc(/C=N/Nc3ccccc3)cc2)CC1

IC50 [16]: 40 nM | IC50 [17]: 1990 nM | Ratio IC50 [18]: 0.02
Compound: CN(C)c1ccc(/C=C/C(=O)c2cc(Cl)sc2Cl)cc1

IC50 [20]: 49 nM
Compound: Cn1cc(/N=C/c2ccc([N+](=O)[O-])cc2)c(=O)n1-c1ccccc1

The remaining lines, values behind:

Compound: O=c1c(O)c(-c2cc(O)c(O)c(O)c2)oc2cc(O)cc(O)c12 [MYRICETIN]
IC50 [1]: 9930 nM

Compound: Cc1c(Cl)c(=O)oc2cc(OCCCCSC(=S)N3CCCCC3C)ccc12 (stereo not given)
IC50 [2]: 6.8 nM | IC50 [3]: 8.9 nM

Compound: O=C1CCC2(O)c3c(ccc(O)c31)-c1ccc(O)c3c1C2C1OC1C3=O (stereo not given)
IC50 [4]: > 80000 nM

Compound: C#CCNCc1ccc2c(c1)ncn2-c1cc(NC(=S)NCC)ncn1
IC50 [5]: 32 nM | bioavailability [6]: 45.5% | IC50 [7]: 2120 nM

Compound: CCOc1ccc([N+](=O)[O-])c(N/N=C/c2ccccn2)n1
IC50 [1]: 9520 nM

Compound: O=C1Oc2ccccc2C(=O)/C1=C/NCc1ccccc1
Ki [9]: 94000 nM | IC50 [10]: 77900 nM | IC50 [11]: 638 nM

Compound: Cc1c(Cl)c(=O)oc2cc(OCCCCSC(=S)N3C(C)CCCC3C)ccc12 (stereo not given)
IC50 [2]: 114 nM | IC50 [3]: 101 nM

Compound: C/C(=N\NC(=O)C1CC(c2ccccc2)=NO1)c1ccc(C)cc1 (stereo not given)
IC50 [12]: 5.1 nM

Compound: Cc1ccc(C2=NO[C@H](c3ccc(Cl)c(Cl)c3)C2)cc1
IC50 [13]: 11000 nM

Compound: CCOc1ccc([N+](=O)[O-])c(N/N=C/c2ccc(C(F)(F)F)cc2)n1
IC50 [1]: 13100 nM

Compound: O=c1cc(OCCN2CCOCC2)c2ccccc2o1
IC50 [19]: 372 nM
